Biological target: T1, acetylcholinesterase (Rattus norvegicus, UniProt P37136)
T1 construct: synaptosome-rich fraction containing endogenous acetylcholinesterase enzyme; from tissue; host or cells: rat cerebral cortex, synaptosome-rich fraction (Whittaker's P2 fraction: synaptosomes and mitochondria)
T1 sequence (P37136 32-614): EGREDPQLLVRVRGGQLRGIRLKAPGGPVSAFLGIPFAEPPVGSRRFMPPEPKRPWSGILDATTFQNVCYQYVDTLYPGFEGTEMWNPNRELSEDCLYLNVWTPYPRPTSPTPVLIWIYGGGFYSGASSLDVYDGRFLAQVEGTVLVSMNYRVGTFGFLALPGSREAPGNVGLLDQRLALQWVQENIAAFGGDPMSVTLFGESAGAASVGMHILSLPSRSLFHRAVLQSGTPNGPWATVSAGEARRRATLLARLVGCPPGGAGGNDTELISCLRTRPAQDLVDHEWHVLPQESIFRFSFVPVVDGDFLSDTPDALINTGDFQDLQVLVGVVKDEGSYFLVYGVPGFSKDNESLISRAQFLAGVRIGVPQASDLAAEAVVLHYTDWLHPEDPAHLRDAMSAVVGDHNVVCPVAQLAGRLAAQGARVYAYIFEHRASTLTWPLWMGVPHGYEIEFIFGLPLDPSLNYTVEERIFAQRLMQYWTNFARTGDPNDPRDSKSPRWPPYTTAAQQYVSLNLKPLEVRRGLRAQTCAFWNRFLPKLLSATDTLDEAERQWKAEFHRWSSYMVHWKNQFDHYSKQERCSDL
Test: Inhibition of acetylcholinesterase in rat cortex synaptosome-rich fraction (hydrolysis of labelled acetylcholine)
Assay type: biochemical
Procedure: Rats were killed by decapitation and the brains were rapidly extirpated. The cortex was dissected out on ice according to the method of Glowinski and Iversen. […] Homogenates were centrifuged at 1000× g for 10 minutes to remove cell nuclei and heavy debris. […] A portion of this synaptosome-rich fraction was added in triplicate to ice-cold pH 7.4 Krebs-Ringer medium.
Assay of acetylcholinesterase was carried out according to the method of Johnson and Russell. See C. […] Acetylcholine labelled in the acetate moiety was enzymatically hydrolyzed by incubation for 10 minutes at room temperature in the presence of the above synaptosome-rich fraction containing endogenous acetylcholinesterase enzyme. The reaction was terminated by addition of a "stopping mixture" containing chloroacetic acid (1.0M), sodium hydroxide (0.5M) and sodium cloride (2.0M) to the reaction vial. Toluene-based scintillation fluid was added to the vial, to extract the released labelled acetate into the organic phase. […] Thus, the sample can be counted directly in the same reaction vial, in which the hydrolysis of sample by acetylcholinesterase has occurred.
Inhibition of cholinesterase activity was estimated, in triplicate, in the presence of a wide range of concentrations (10^-9 to 10^-3 M).

Structure (SMILES): CCC=C1C2C=C(C)CC1(N)c1ccc(=O)[nH]c1C2 (stereo not drawn) [1-carbon Analog]
- inhibition of the cholinesterase enzyme (in words) (compared with huperzine A): inhibited the cholinesterase enzyme, but to a lesser extent than huperzine A
- IC50 (read-out: IC50 (extent of cholinesterase enzyme inhibition), rat cortex synaptosome-rich fraction, 10 min, room temperature, triplicate, 10^-9 to 10^-3 M): 100 µM
- IC50 /IC50 of Huperzine A (relative to synthesized huperzine A, the smaller this number, the more potent the compound): 166.6

From US5663344A, “Method for the synthesis of huperzine A and analogs thereof and compounds useful therein” (Mayo Foundation for Medical Education and Research, priority 1994, dated 1997)
